# Experimental data taken from patent publication US12280168B2, “Method for sanitization of a chromatography column” (Cytiva Sweden AB, priority 2019, dated 2025).
# Assays:
# Format in all cases: cell-based
# [1] = system: Pseudomonas aeruginosa, ATCC 9027; test: Sanitization study 1: AxiChrom 300 column packed with resin inoculated with challenging organism, sanitized with peracetic acid
# Description: (§1) A predefined sanitization method based on peracetic acid (PAA) as sanitization agent was evaluated in an AxiChrom™ 300 column (GE Healthcare) packed with agarose beads, as used in the MabSelect™ SuRe Protein A resin (GE Healthcare), by triplicate studies using P. aeruginosa as challenging organism. All parts in contact with the process flow including the resin were pre-cleaned, challenged, sanitized and evaluated. Microbial sampling was performed at predetermined sites on the system. Flow through samples were collected from the process chamber during the run and from the flush channel, process chamber and resin valve after finishing the sanitization method. Additional flow through samples were collected after five to six days of clean hold. Test methods used are presented below. The results were evaluated against stated acceptance criteria.
# (§2) Pseudomonas aeruginosa, ATCC 9027, Gram negative bacteria
# (§3) 1×10^7 CFU/ml or CFU/unit (CFU=Colony forming unit) […]
# (§4) TSA plates streaked with P. aeruginosa ATCC 9027 (in-house glycerol stocks) were incubated in 37° C. over night (O.N.). […] O.N. Based on measured optical densities (ODs) of the inoculates and the assumption that 1 OD≈2×10^9 CFU/mL for P. aeruginosa, calculations were made on the volumes needed of the inoculate to be added to the resin slurry suspended in 50 mM NaCl. […] The microorganism concentrations were determined with test method 5. […]
# [2] = system: Pseudomonas aeruginosa, ATCC 9027; test: Sanitization study 2: dual adapter strokes, 100 mM PAA in flush channel, slurry chased with 20 mM PAA, 5 day clean hold
# Description: as §1, §2, §3, §4
# [3] = system: Pseudomonas aeruginosa, ATCC 9027; test: Sanitization study 3: dual adapter strokes, 100 mM PAA in flush channel, resin valve opened and closed twice, 6 day clean hold
# Description: as §1, §2, §3, §4
smiles,measurement,setting,value
"CC(=O)OO [PAA, peracetic acid]","Outcome against acceptance criteria, study 1",[1],did not meet the acceptance criteria
same,"Result study 1, resin after sanitization","[1]; test method 6 agar plate, 20 mM PAA",0 CFU/g
same,"Outcome against acceptance criteria, study 2",[2]; positive control G showed no challenging organism,did meet the acceptance criteria
same,"Result study 2, challenging organism in consolidation effluent / water rinse flowthrough after chasing slurry with 20 mM PAA","[2]; test method 5 viable count, samples G and J, before the sanitization method",0 CFU/mL
same,"Outcome against acceptance criteria, study 3",[3],met the acceptance criteria
same,"Challenging organism found after sanitization, study 3",[3]; all sampling points,no challenging organism was discovered
